# Results from patent US10167262B2, “Herbicidal substituted 3-arylpyrazoles” (FMC CORPORATION, priority 2014, dated 2019).
# Read-outs that look alike come from different tables or passages of the source.
# Experiments:
# Type in all cases: in vivo
# corn (Zea mays) [1] = experiment: Test C pre-/postemergence greenhouse test, plant response rating 0-100; conditions: Zea mays, pre-emergence, Preemergence
# How it was run: (§1)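 Scores run from 0, no effect, to 100, complete control, assigned by eye after treated plants and controls spent 13 to 15 days in a greenhouse. Soil-applied treatment went onto freshly sown seed in loam and sand; foliar treatment hit seedlings at the 1- to 4-leaf stage.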
# [2] = tested on: pigweed (Amaranthus retroflexus); experiment: as above; conditions: Amaranthus retroflexus; for pest or weed control at 62 g/ha: 62 g ai/ha; for pest or weed control at 250 g/ha: 250 g ai/ha; for pest or weed control at 500 g/ha: 500 g ai/ha
# How it was run: as §1
# [3] = tested on: Italian ryegrass (Lolium multiflorum); experiment: as above; conditions: Lolium multiflorum; for pest or weed control at 62 g/ha: 62 g ai/ha; for pest or weed control at 125 g/ha: 125 g ai/ha; for pest or weed control at 250 g/ha: 250 g ai/ha; for pest or weed control at 500 g/ha: 500 g ai/ha
# How it was run: as §1
# [4] = tested on: velvetleaf (Abutilon theophrasti); experiment: as above; conditions: Abutilon theophrasti; for pest or weed control at 62 g/ha: 62 g ai/ha; for pest or weed control at 125 g/ha: 125 g ai/ha; for pest or weed control at 250 g/ha: 250 g ai/ha; for pest or weed control at 500 g/ha: 500 g ai/ha
# How it was run: as §1
# [5] = tested on: ragweed (common ragweed, Ambrosia elatior); experiment: as above; conditions: Ambrosia artemisiifolia; for pest or weed control at 62 g/ha: 62 g ai/ha; for pest or weed control at 125 g/ha: 125 g ai/ha; for pest or weed control at 250 g/ha: 250 g ai/ha; for pest or weed control at 500 g/ha: 500 g ai/ha
# How it was run: as §1
# [6] = tested on: barnyardgrass (Echinochloa crus-galli); experiment: Test A pre-/postemergence greenhouse herbicide test, visual injury rating 0-100; conditions: Echinochloa crus-galli, 240 h, 1000 g ai/ha, read-out: Plant response rating (0 to 100 scale), Barnyardgrass
# How it was run: (§2)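 Visual injury scored on a 0–100 scale versus untreated controls roughly 10 days after treatment in greenhouse. Treatments were preemergence soil sprays plus postemergence sprays to plants 2–10 cm tall at one- to two-leaf stage, in a surfactant-containing solvent formulation.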
# corn (Zea mays) [7] = experiment: as above; conditions: Zea mays, 240 h, 1000 g ai/ha, read-out: Plant response rating (0 to 100 scale), Corn
# How it was run: as §2
# [8] = tested on: pigweed (Amaranthus retroflexus); experiment: as above; conditions: Amaranthus retroflexus, 240 h, 1000 g ai/ha, read-out: Plant response rating (0 to 100 scale), Pigweed
# How it was run: as §2
# [9] = tested on: giant foxtail (Setaria faberii); experiment: as above; conditions: Setaria faberi, 240 h, 1000 g ai/ha, read-out: Plant response rating (0 to 100 scale), Foxtail, Giant
# How it was run: as §2
# [10] = tested on: wheat (Triticum aestivum); experiment: as above; conditions: Triticum aestivum, 240 h, 1000 g ai/ha, read-out: Plant response rating (0 to 100 scale), Wheat
# How it was run: as §2
# [11] = tested on: morningglory (Ipomoea spp.); experiment: as above; conditions: Ipomoea, pre-emergence, 240 h; Preemergence, 1000 g ai/ha; read-out: Plant response rating (0 to 100 scale), Morningglory
# How it was run: as §2
# [12] = tested on: velvetleaf (Abutilon theophrasti); experiment: as above; conditions: Abutilon theophrasti, 240 h, 1000 g ai/ha, read-out: Plant response rating (0 to 100 scale), Velvetleaf
# How it was run: as §2
# [13] = tested on: large (Lg) crabgrass (Digitaria sanguinalis); experiment: as above; conditions: Digitaria sanguinalis, 240 h, 1000 g ai/ha, read-out: Plant response rating (0 to 100 scale), Crabgrass, Large
# How it was run: as §2
# [14] = post-emergence, Postemergence, scale 0 to 100
# [15] = post-emergence, Postemergence, read-out: Plant response rating (0 to 100), Ryegrass, Italian
# [16] = pre-emergence, Preemergence, read-out: Plant response rating, Ryegrass, Italian
# [17] = post-emergence, Postemergence, read-out: Plant response rating (0 to 100), Velvetleaf
# [18] = pre-emergence, Preemergence, read-out: Plant response rating, Velvetleaf
# [19] = post-emergence, Postemergence, read-out: Plant response rating (0 to 100), Ragweed
# [20] = pre-emergence, Preemergence, read-out: Plant response rating, Ragweed
structure (smiles),measurement,setting,value
"C#CCn1cc(C(=O)c2ccccc2)c(-c2cc(Cl)cc(Cl)c2)n1 [Compound 39, [3-(3,5-dichlorophenyl)-1-(2-propyn-1-yl)-1H-pyrazol-4-yl]phenylmethanone]","Corn plant response rating (crop injury, 0 = no effect, 100 = complete kill) at 62 g/ha",corn (Zea mays) [1]; 62 g ai/ha,0%
same,"Corn plant response rating (crop injury, 0 = no effect, 100 = complete kill) at 125 g/ha",corn (Zea mays) [1]; 125 g ai/ha,0%
same,"Corn plant response rating (crop injury, 0 = no effect, 100 = complete kill) at 250 g/ha",corn (Zea mays) [1]; 250 g ai/ha,0%
same,pest or weed control at 62 g/ha,"[2]; post-emergence, Postemergence, read-out: Plant response rating (0 to 100), Pigweed",90%
same,pest or weed control at 250 g/ha,[2]; [14],98%
same,pest or weed control at 500 g/ha,[2]; [14],98%
same,pest or weed control at 62 g/ha,"[2]; pre-emergence, Preemergence, read-out: Plant response rating, Pigweed",45%
same,pest or weed control at 125 g/ha,"[2]; pre-emergence, Preemergence, 125 g ai/ha, read-out: Plant response rating, Pigweed",75%
same,pest or weed control at 250 g/ha,"[2]; pre-emergence, Preemergence",85%
same,pest or weed control at 500 g/ha,"[2]; pre-emergence, Preemergence",95%
same,pest or weed control at 62 g/ha,[3]; [15],0%
same,pest or weed control at 125 g/ha,[3]; [15],0%
same,pest or weed control at 250 g/ha,[3]; [14],0%
same,pest or weed control at 500 g/ha,[3]; [14],0%
same,pest or weed control at 62 g/ha,[3]; [16],0%
same,pest or weed control at 125 g/ha,[3]; [16],0%
same,pest or weed control at 250 g/ha,"[3]; pre-emergence, Preemergence",0%
same,pest or weed control at 500 g/ha,"[3]; pre-emergence, Preemergence",0%
same,pest or weed control at 62 g/ha,[4]; [17],75%
same,pest or weed control at 125 g/ha,[4]; [17],85%
same,pest or weed control at 250 g/ha,[4]; [14],85%
same,pest or weed control at 500 g/ha,[4]; [14],98%
same,pest or weed control at 62 g/ha,[4]; [18],55%
same,pest or weed control at 125 g/ha,[4]; [18],65%
same,pest or weed control at 250 g/ha,"[4]; pre-emergence, Preemergence",65%
same,pest or weed control at 500 g/ha,"[4]; pre-emergence, Preemergence",80%
same,pest or weed control at 62 g/ha,[5]; [19],10%
same,pest or weed control at 125 g/ha,[5]; [19],10%
same,pest or weed control at 250 g/ha,[5]; [14],35%
same,pest or weed control at 500 g/ha,[5]; [14],35%
same,pest or weed control at 62 g/ha,[5]; [20],0%
same,pest or weed control at 125 g/ha,[5]; [20],20%
same,pest or weed control at 250 g/ha,"[5]; pre-emergence, Preemergence",45%
same,pest or weed control at 500 g/ha,"[5]; pre-emergence, Preemergence",45%
same,pest or weed control at 1000 g/ha,"[6]; post-emergence, Postemergence",0%
same,pest or weed control at 1000 g/ha,"[6]; pre-emergence, Preemergence",0%
same,plant injury at 1000 g/ha,"corn (Zea mays) [7]; post-emergence, Postemergence",0%
same,plant injury at 1000 g/ha,"corn (Zea mays) [7]; pre-emergence, Preemergence",0%
same,pest or weed control at 1000 g/ha,"[8]; post-emergence, Postemergence",100%
same,pest or weed control at 1000 g/ha,"[8]; pre-emergence, Preemergence",100%
same,pest or weed control at 1000 g/ha,"[9]; post-emergence, Postemergence",0%
same,pest or weed control at 1000 g/ha,"[9]; pre-emergence, Preemergence",0%
same,plant injury at 1000 g/ha,"[10]; post-emergence, Postemergence",0%
same,plant injury at 1000 g/ha,"[10]; pre-emergence, Preemergence",0%
same,pest or weed control at 1000 g/ha,[11],0%
same,pest or weed control at 1000 g/ha,"[12]; post-emergence, Postemergence",100%
same,pest or weed control at 1000 g/ha,"[12]; pre-emergence, Preemergence",100%
same,pest or weed control at 1000 g/ha,"[13]; post-emergence, Postemergence",0%
same,pest or weed control at 1000 g/ha,"[13]; pre-emergence, Preemergence",0%
